Values joined by “and” are separate entries in the source; they are usually repeats but may differ in a detail not shown here. Equal entries are not always repeated. Where two headings read alike, the source gives them in different places.
Assays:
[1] = biological target: L1 EN (LINE-1 retrotransposon endonuclease domain) (Homo sapiens, UniProt O00370, N5T); experiment: Fluorescent oligonucleotide EN nicking activity assay; assay type: biochemical
APE1 = biological target: T1, APE1 (Homo sapiens, UniProt P27695); experiment: APE1 fluorescent oligonucleotide activity assay (abasic site substrate); assay type: biochemical; conditions: for activity at 25 µM: read-out: APE1 activity (%)
T1 construct: purchased New England Biolabs (NEB) M0282S

[2] = test system: substrate oligonucleotide used in the EN activity assay; assay type: binding; design: key to Binding Detected? (Y/N): Binding Detected? (Y/N); Binding Detected? (Y/N)
L1 retrotransposition = experiment: HeLa dual-luciferase L1 retrotransposition assay; assay type: cell-based, human; conditions: for L1 retrotransposition, average: average of 4 replicates, Figure 4b
[3] = test system: L1-induced DNA damage in HeLa Tet-On cells (full-length L1); experiment: γ-H2AX immunofluorescence assay, full-length L1 constructs; assay type: cell-based, human
[4] = test system: DNA fragmentation (comet tail length) in HeLa Tet-On cells expressing EN domain; experiment: Neutral comet assay, EN domain-only constructs; assay type: cell-based, human
[5] = test system: senescent LF1 human diploid fibroblasts (IL6, IL1β, CCL2, IFNα, MMP3); experiment: RT-qPCR of inflammatory markers in replicatively senescent fibroblasts; assay type: cell-based
[6] = test system: senescent LF1 human diploid fibroblasts (IFN-I and Aging gene sets); experiment: RNA-seq / Gene Set Enrichment Analysis of senescent cultures; assay type: cell-based; conditions: senescent cultures treated 1 month beginning at 3 months senescence
HeLa Tet-On cells = conditions: human
[7] = read-out: EN activity, percent of no inhibitor control

Sequence of L1 EN (LINE-1 retrotransposon endonuclease domain) (O00370 1-239 N5T): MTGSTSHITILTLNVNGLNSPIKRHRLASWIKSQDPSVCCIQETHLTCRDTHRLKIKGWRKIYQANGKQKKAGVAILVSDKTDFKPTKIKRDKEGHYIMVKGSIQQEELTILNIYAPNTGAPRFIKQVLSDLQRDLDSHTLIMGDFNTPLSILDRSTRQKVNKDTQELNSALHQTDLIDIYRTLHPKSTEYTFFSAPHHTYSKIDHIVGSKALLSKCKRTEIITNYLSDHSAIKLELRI

COc1ccc2c(c1)C(=O)N(CCc1ccc(S(=O)(=O)NC(=O)NC3CCCCC3)cc1)C(=O)C2(C)C [AD12]
EN activity, percent of no inhibitor control ([1]; [Inhibitor] 5 μM, technical replicates 1-3, Fig. 2b source data, 5 µM): 77.035% and 74.8653%
remaining activity at 5 µM ([1]; [Inhibitor] 5 μM, technical replicates 1-3, Fig. 2b source data, read-out: EN activity, percent of no inhibitor control): 78.7%
EN activity, percent of no inhibitor control ([1]; [Inhibitor] 25 μM, technical replicates 1-3, Fig. 2b source data, 25 µM): 81.0185% and 81.0517%
remaining activity at 25 µM ([1]; [Inhibitor] 25 μM, technical replicates 1-3, Fig. 2b source data, read-out: EN activity, percent of no inhibitor control): 80.7%
EN activity, percent of no inhibitor control ([1]; [Inhibitor] 50 μM, technical replicates 1-3, Fig. 2b source data, 50 µM): 93.0387% and 96.7449% and 76.3025%
EN activity, percent of no inhibitor control ([1]; [Inhibitor] 100 μM, technical replicates 1-3, Fig. 2b source data, 100 µM): 74.7453% and 98.1517% and 74.2286%
EN activity, percent of no inhibitor control ([1]; [Inhibitor] 250 μM, technical replicates 1-3, Fig. 2b source data, 250 µM): 79.2639% and 68.0005%
remaining activity at 250 µM ([1]; [Inhibitor] 250 μM, technical replicates 1-3, Fig. 2b source data, read-out: EN activity, percent of no inhibitor control): 61.9%
EN activity, percent of no inhibitor control ([1]; [Inhibitor] 500 μM, technical replicates 1-3, Fig. 2b source data, 500 µM): 55.3249% and 49.2356%
remaining activity at 500 µM ([1]; [Inhibitor] 500 μM, technical replicates 1-3, Fig. 2b source data, read-out: EN activity, percent of no inhibitor control): 62.1%
EN activity, percent of no inhibitor control ([1]; [Inhibitor] 750 μM, technical replicates 1-3, Fig. 2b source data, 750 µM): 29.8392% and 18.9487%
remaining activity at 750 µM ([1]; [Inhibitor] 750 μM, technical replicates 1-3, Fig. 2b source data, read-out: EN activity, percent of no inhibitor control): 18%
EN activity, percent of no inhibitor control ([1]; [Inhibitor] 1000 μM, technical replicates 1-3, Fig. 2b source data, 1000 µM): 13.0331% and 19.9958%
remaining activity at 1000 µM ([1]; [Inhibitor] 1000 μM, technical replicates 1-3, Fig. 2b source data, read-out: EN activity, percent of no inhibitor control): 20.4%
EN activity, percent of no inhibitor control ([1]; [Inhibitor] 1500 μM, technical replicates 1-3, Fig. 2b source data, 1500 µM): 5.3699% and 4.215%
remaining activity at 1500 µM ([1]; [Inhibitor] 1500 μM, technical replicates 1-3, Fig. 2b source data, read-out: EN activity, percent of no inhibitor control): 4.91%
Percent APE1 activity, average (APE1; 250 µM, Supplementary Fig. 6b, n=3): 114.2%
Percent APE1 activity, replicates (APE1; 250 µM, Supplementary Fig. 6b, replicates 1-3): 123.394% and 115.312% and 103.88%
APE1 percent activity, Replicate 1 (APE1; compound at 25 μM, Replicate 1): 105.329%
APE1 percent activity, Replicate 2 (APE1; compound at 25 μM, Replicate 2): 115.007%
APE1 percent activity, Replicate 3 (APE1; compound at 25 μM, Replicate 3): 106.871%
APE1 percent activity, average (APE1; compound at 25 μM, average of 3 replicates): 109.069%
activity at 25 µM (APE1; inhibitors at 25 μM, relative to 0 μM inhibitor control, mean ± s.d., 3 independent experiments): 109 ± 5.2%
Binding Detected? (Y/N) [2]: N
L1 retrotransposition, average (L1 retrotransposition; 1 μM inhibitor): 17.6477
L1 retrotransposition, average (L1 retrotransposition; 5 μM inhibitor): 10.1662
L1 retrotransposition, average (L1 retrotransposition; 10 μM inhibitor): 4.75
L1 retrotransposition, average (L1 retrotransposition; 25 μM inhibitor): 4.785
L1 retrotransposition, average (L1 retrotransposition; 50 μM inhibitor): 3.467
L1 retrotransposition, average (L1 retrotransposition; 100 μM inhibitor): 2.555
Luciferase (retrotransposition), average (L1 retrotransposition; Figure 4a Graph 3, 50μM, 0μM average 17.91): 3.467
Luciferase (retrotransposition), replicates (L1 retrotransposition; Figure 4a Graph 3, 50μM, Replicates 1-4, 0μM average 17.91): 3.679 and 3.508 and 3.347 and 3.332
Effect on L1 retrotransposition (L1 retrotransposition; HeLa cells): some activity in the retrotransposition assay
Inhibition of DNA damage, full-length L1 experiments [3]: best inhibition
Nuclei comet tail length, average (WT = 1) ([4]; 50 μM inhibitor, EN domain-only construct, neutral comet assay, normalised to WT): 0.8544
MMP3 RT-qPCR, average (EP = 1) ([5]; 50 μM, senescent cells, SEN control 5.499, 3 replicates): 3.608
IL1β RT-qPCR, average (EP = 1) ([5]; 50 μM, senescent cells, SEN control 8.256, 3 replicates): 8.197
CCL2 RT-qPCR, average (EP = 1) ([5]; 50 μM, senescent cells, SEN control 8.589, 3 replicates): 4.591
IFNα RT-qPCR, average (EP = 1) ([5]; 50 μM, senescent cells, SEN control 18.65, 3 replicates): 8.607
IL6 RT-qPCR, average (EP = 1) ([5]; 50 μM, senescent cells, SEN control 22.45, 3 replicates): 8.334
Inhibition of inflammation in senescent cells ([5]; treated 1 month): showed efficacy
Expression of IFN-I gene set and aging gene set (RNA-seq, GSEA) [6]: decreased expression
PrestoBlue (viability), average (HeLa Tet-On cells; 48 h, 50 μM): 5.992

C/C(C[C@H](c1ccccc1)c1c(O)c2ccccc2oc1=O)=N\Nc1ccc([N+](=O)[O-])cc1[N+](=O)[O-] [AD3]
EN activity, percent of no inhibitor control ([1]; 1 µM): 108.117% and 78.9256% and 93.3444%
EN activity, percent of no inhibitor control ([1]; 5 µM): 93.5701% and 96.3453%
EN activity, percent of no inhibitor control ([1]; 10 µM): 99.3729%
EN activity, percent of no inhibitor control ([1]; 25 µM): 99.0637% and 102.756%
EN activity, percent of no inhibitor control ([1]; 50 µM): 87.9685% and 80.8738% and 62.1552%
EN activity, percent of no inhibitor control ([1]; 100 µM): 53.1232% and 37.4643% and 59.5468%
EN activity, percent of no inhibitor control ([1]; 250 µM): 26.1232% and 25.9631%
EN activity, percent of no inhibitor control ([1]; 500 µM): 1.104% and 2.0558% and 4.103%
EN activity, percent of no inhibitor control ([1]; 1000 µM): 0.8695% and 0.8159%
remaining activity at 5 µM [1, 7]: 89.6%
remaining activity at 10 µM [1, 7]: 99.4%
remaining activity at 25 µM [1, 7]: 95.7%
remaining activity at 250 µM [1, 7]: 25.7%
remaining activity at 1000 µM [1, 7]: 1.63%
APE1 percent activity, Replicate 1 (APE1): 92.838%
APE1 percent activity, Replicate 3 (APE1): 104.006%
APE1 percent activity, average (APE1): 103.516%
Percent APE1 activity, average (APE1): 95.58%
Percent APE1 activity, replicates (APE1): 101.896% and 94.978% and 89.8705%
activity at 25 µM (APE1): 104 ± 10.4%
Binding Detected? (Y/N) [2]: N
Luciferase (retrotransposition), average (L1 retrotransposition): 1.378
Luciferase (retrotransposition), replicates (L1 retrotransposition): 0.9116 and 1.591 and 1.485 and 1.524
Inhibition of DNA damage, full-length L1 experiments [3]: best inhibition
Nuclei comet tail length, average (WT = 1) [4]: 0.568
IL1β RT-qPCR, average (EP = 1) [5]: 4.703
IL6 RT-qPCR, average (EP = 1) [5]: 6.462
Inhibition of inflammation in senescent cells [5]: showed efficacy
MMP3 RT-qPCR, average (EP = 1) [5]: 2.136
PrestoBlue (viability), average (HeLa Tet-On cells): 15.41
